Source: US10364226B2, “Pyridazinone compounds and uses thereof” (priority 2013, dated 2019)

Key:
[1] = test system: Influenza strain A549 A/WSN/33 (H1N1); experiment: Influenza Antiviral Assay; assay type: cell-based, Influenza A virus; conditions: Influenza A virus, A549, 20 h, neuraminidase fluorescence readout, read-out: % Inhibition
[2] = biological target: EN PA (Influenza A virus, UniProt P15659); experiment: EN PA FRET Inhibition Assay; assay type: biochemical; conditions: read-out: Potency

| SMILES | EC50 [1] | IC50 [2] |
| --- | --- | --- |
| O=C(O)c1nn(CCC2CCCCC2)cc(O)c1=O [Compound 421] | > 100 µM | 0.1 to 1 µM |
| O=C(O)c1nn(CC2(n3ccc4cccnc43)CCCC2)cc(O)c1=O [Compound 422] | < 20 µM | < 0.1 µM |
| O=C(O)c1nn(CCc2cccc3ccccc23)cc(O)c1=O [Compound 423] | > 100 µM | 0.1 to 1 µM |
| O=C(O)c1nn(CC2(c3cccc(C(F)(F)F)c3)CC2)cc(O)c1=O [Compound 424] | 20 to 100 µM | 0.1 to 1 µM |
| CCC(NC(=O)c1nn(CC2(c3cccc(C(F)(F)F)c3)CCCC2)cc(O)c1=O)C(F)(F)F (stereo not drawn) [Compound 500, 5-hydroxy-4-oxo-N-(1,1,1-trifluorobutan-2-yl)-1-((1-(3-(trifluoromethyl)phenyl)cyclopentyl)methyl)-1,4-dihydropyridazine-3-carboxamide] | < 20 µM | 0.1 to 1 µM |
| CNC(=O)c1nn(-c2ccccc2-c2ccc(CC(C)C)cc2)cc(O)c1=O [Compound 501] | < 20 µM | ≥ 1 µM |
| O=C(c1nn(CC2(c3cccc(C(F)(F)F)c3)CCCC2)cc(O)c1=O)N1CCC(F)(F)C1 [Compound 502] | < 20 µM | ≥ 1 µM |
| O=C(NC1(C(F)(F)F)CCCC1)c1nn(CC2(c3cccc(C(F)(F)F)c3)CCCC2)cc(O)c1=O [Compound 503] | < 20 µM | 0.1 to 1 µM |
| CN(C)C(=O)c1nn(CC2(c3cccc(C(F)(F)F)c3)CCCC2)cc(O)c1=O [Compound 504] | 20 to 100 µM | ≥ 1 µM |
| O=C(NCC(F)(F)F)c1nn(CC2(c3cccc(C(F)(F)F)c3)CCCC2)cc(O)c1=O [Compound 505] | < 20 µM | 0.1 to 1 µM |
| CNC(=O)c1nn(CC2(c3cc(C(F)(F)F)cc(C(F)(F)F)c3)CCCC2)cc(O)c1=O [Compound 506] | < 20 µM | 0.1 to 1 µM |
| O=C(NC1CC1)c1nn(CC2(c3cccc(C(F)(F)F)c3)CCCC2)cc(O)c1=O [Compound 507] | < 20 µM | 0.1 to 1 µM |
| O=C(NCc1ccccc1)c1nn(CC2(c3cccc(C(F)(F)F)c3)CCCC2)cc(O)c1=O [Compound 509] | < 20 µM | 0.1 to 1 µM |
| O=C(NCC1CC1)c1nn(CC2(c3cccc(C(F)(F)F)c3)CCCC2)cc(O)c1=O [Compound 510] | < 20 µM | 0.1 to 1 µM |
| CNC(=O)c1nn(CC2(c3cccc(C(F)(F)F)c3)CCCC2)cc(O)c1=O [Compound 511] | < 20 µM | 0.1 to 1 µM |
| CS(=O)(=O)NC(=O)c1nn(CC2(c3cccc(C(F)(F)F)c3)CCCC2)cc(O)c1=O [Compound 512] | < 20 µM | 0.1 to 1 µM |
| O=C(NCc1ccc(Cl)c(Cl)c1)c1nn(CC2(c3cccc(C(F)(F)F)c3)CCCC2)cc(O)c1=O [Compound 513] | < 20 µM | 0.1 to 1 µM |
| O=C(NC1CCCC1)c1nn(CC2(c3cccc(C(F)(F)F)c3)CCCC2)cc(O)c1=O [Compound 514] | < 20 µM | 0.1 to 1 µM |
| O=C(NC1CCC1)c1nn(CC2(c3cccc(C(F)(F)F)c3)CCCC2)cc(O)c1=O [Compound 515] | > 100 µM | 0.1 to 1 µM |
| O=C(NC1CCCCC1)c1nn(CC2(c3cccc(C(F)(F)F)c3)CCCC2)cc(O)c1=O [Compound 516] | < 20 µM | 0.1 to 1 µM |
| O=C(Nc1ccccc1)c1nn(CC2(c3cccc(C(F)(F)F)c3)CCCC2)cc(O)c1=O [Compound 517] | < 20 µM | 0.1 to 1 µM |
| CNC(=O)c1nn(-c2ccccc2-c2ccccc2-c2ccccc2)cc(O)c1=O [Compound 518] | < 20 µM | 0.1 to 1 µM |
| CNC(=O)c1nn(-c2ccccc2-c2ccccc2C(C)C)cc(O)c1=O [Compound 519] | 20 to 100 µM | 0.1 to 1 µM |
| O=C(NCc1ccc(Cl)cc1)c1nn(CC2(c3cccc(C(F)(F)F)c3)CCCC2)cc(O)c1=O [Compound 523] | < 20 µM | 0.1 to 1 µM |
